Here are results for seven compounds from US20250230193A1, “CYCLIC COMPOUND HAVING SELECTIVE KRAS INHIBITORY EFFECT ON HRAS AND NRAS” (CHUGAI SEIYAKU KABUSHIKI KAISHA, priority 2022, published 2025).

*1 amine or outer side, *2 acyl side, *3 side chain or, on linkers, in order; H or OH if unused. Where a SMILES comes first, the peptide text is derived from it. Bridges are numbered along the chain shown (N, C = ends). [ ]: non-standard residue; d: D form. The star is where a group is joined. hPhe(3-Cl-4-CF3) = N[C@@H](CCc1ccc(C(F)(F)F)c(Cl)c1)C(=O)O; X41 = Cc1ccc(C[C@@H](C(=O)[*:2])N(CCC(F)(F)F)[*:1])cc1; NMeGly(cPent) = CN[C@H](C(=O)O)C1CCCC1; NMeD = CN[C@@H](CC(=O)O)C(=O)O; NMeL = CN[C@@H](CC(C)C)C(=O)O; Morpholide = C1CN(*)CCO1; Ac5c = NC1(C(=O)O)CCCC1; Sar = CNCC(=O)O

In test [1] the target is GDP-bound NRAS wild-type protein (Homo sapiens, UniProt P01111). The test can be described thus: Binding to NRAS by surface plasmon resonance (SPR), Single Cycle Kinetics.
The target in test [2] is GDP-bound HRAS wild-type protein (Homo sapiens, UniProt P01112). Kind of test: Binding to HRAS by surface plasmon resonance (SPR), Single Cycle Kinetics. On the technique in general: SPR reads the build-up and loss of mass on a sensor chip optically.
Where [3] appears, read: KD ratio NRAS/KRAS, class symbols.
Where [4] appears, read: KD ratio HRAS/KRAS, class symbols.
[5] abbreviates: KD ratio, GDP-bound NRAS wild-type vs GDP-bound KRAS wild-type, SPR.
The mark [6] stands for this setting: KD ratio, GDP-bound HRAS wild-type vs GDP-bound KRAS wild-type, SPR.

GDP-bound HRAS wild-type protein, sequence (P01112 whole entry): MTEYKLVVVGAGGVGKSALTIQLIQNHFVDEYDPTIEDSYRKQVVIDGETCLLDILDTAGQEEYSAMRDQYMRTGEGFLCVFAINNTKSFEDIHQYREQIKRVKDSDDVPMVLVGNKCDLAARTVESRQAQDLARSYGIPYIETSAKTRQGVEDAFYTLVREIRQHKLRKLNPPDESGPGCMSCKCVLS
GDP-bound NRAS wild-type protein, sequence (P01111 whole entry): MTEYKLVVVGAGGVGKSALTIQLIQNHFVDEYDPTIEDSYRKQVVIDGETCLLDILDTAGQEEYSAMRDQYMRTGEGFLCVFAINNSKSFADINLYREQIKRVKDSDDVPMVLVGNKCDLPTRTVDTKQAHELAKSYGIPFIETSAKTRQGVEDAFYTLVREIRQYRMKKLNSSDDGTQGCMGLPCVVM

Consider `CCC[C@H]1C(=O)N[C@@H]([C@@H](C)CC)C(=O)N(C)CC(=O)N(C)[C@H]2C/C=C\CCN(C2=O)[C@@H](Cc2ccc(C(F)(F)F)cc2)C(=O)N(C)CC(=O)N[C@@H](CCc2ccc3c(C)cn(C)c3c2)C(=O)N2C[C@H](OCC)C[C@H]2C(=O)NC2(CC(C)(C)C2)C(=O)N(C)[C@@H](C(CC)CC)C(=O)N(C)[C@H](C(=O)N(C)C)CC(=O)N1C` [PP2908], for which the “NRAS/KRAS (ratio of KD value with respect to GDP-bound NRAS wild-type protein to KD value with respect to KRAS)” value in test [1] (setting [3]) is recorded as “AA (a compound having 20 or more is denoted as AA)”. Also, in test [2] (setting [4]), the “HRAS/KRAS (ratio of KD value with respect to GDP-bound HRAS wild-type protein to KD value with respect to KRAS)” value was “A (a compound having 10 or more and less than 20 is denoted as A)”.

`CCCN(C)C(=O)[C@@H]1CC(=O)N(C)[C@@H](CC2CC2)C(=O)N[C@@H]([C@@H](C)CC)C(=O)N(C)CC(=O)N(C)[C@H]2C/C=C\CCN(C2=O)[C@@H](Cc2ccc(C(F)(F)F)cc2)C(=O)N(C)CC(=O)N[C@@H](CCc2cc(F)c(C(F)(F)F)c(F)c2)C(=O)N2C[C@H](OCC)C[C@H]2C(=O)NC2(CC(F)(F)C2)C(=O)N(C)[C@@H](C2CCCC2)C(=O)N1C` [PP1739]: the “NRAS/KRAS (ratio of KD value for NRAS to KD value for KRAS)” value in test [1] (setting [5]) is “AA (a compound having 20 or more is denoted as AA)”. For the same compound, the “HRAS/KRAS (ratio of KD value for HRAS to KD value for KRAS)” value in test [2] (setting [6]) is recorded as “AA (a compound having 20 or more is denoted as AA)”.

Take `CC[C@H](C)[C@@H]1NC(=O)[C@@H]2CCCCCCc3ccc(cc3)C[C@@H](C(=O)N(C)CC(=O)N[C@@H](CCc3ccc(C(F)(F)F)c(OC)c3)C(=O)N3CC4(CC4)C[C@H]3C(=O)NC3(CC(C)(C)C3)C(=O)N(C)[C@@H](C3CCCC3)C(=O)N(C)[C@H](C(=O)N(C)C)CC(=O)N2C)N2CC/C=C\C[C@@H](C2=O)N(C)C(=O)CN(C)C1=O` [PP3069]: the “NRAS/KRAS (ratio of KD value with respect to GDP-bound NRAS wild-type protein to KD value with respect to KRAS)” value in test [1] (KD ratio NRAS/KRAS, SPR, GDP-bound wild-type proteins) was “A (a compound having 10 or more and less than 20 is denoted as A)”. The “HRAS/KRAS (ratio of KD value with respect to GDP-bound HRAS wild-type protein to KD value with respect to KRAS)” value in test [2] (KD ratio HRAS/KRAS, SPR, GDP-bound wild-type proteins) is “B (a compound having 3 or more and less than 10 is denoted as B)”.

Regarding `CC[C@H](C)[C@@H]1NC(=O)[C@H](CC(C)C)N(C)C(=O)C[C@@H](C(=O)N2CCOCC2)N(C)C(=O)[C@H](C2CCCC2)N(C)C(=O)C2(CCCC2)NC(=O)[C@@H]2CCCN2C(=O)[C@H](CCc2ccc(C(F)(F)F)c(Cl)c2)NC(=O)CN(C)C(=O)[C@H](Cc2ccc(C)cc2)N(CCC(F)(F)F)C(=O)CN(C)C(=O)CN(C)C1=O` [PP0103] ([NMeL]I[Sar][Sar][X41][Sar][hPhe(3-Cl-4-CF3)]P[Ac5c][NMeGly(cPent)][NMeD]-Morpholide; lactam N-11), in test [1] (KD ratio NRAS/KRAS, SPR), the “NRAS/KRAS (ratio of KD for GDP-bound NRAS wild-type to KD for KRAS)” value is “B (a compound having 3 or more and less than 10 is denoted as B)”. Besides, in test [2] (KD ratio HRAS/KRAS, SPR), the “HRAS/KRAS (ratio of KD for GDP-bound HRAS wild-type to KD for KRAS)” value was “C (A compound having a KD ratio of 0.1 or more and less than 3 is denoted as C)”.

For `CCC[C@H]1C(=O)N[C@@H]([C@@H](C)CC)C(=O)N(C)CC(=O)N(C)[C@H]2C/C=C\CCN(C2=O)[C@@H](Cc2ccc(C(F)(F)F)cc2)C(=O)N(C)CC(=O)N[C@@H](CCc2ccc3sc(F)c(C)c3c2)C(=O)N2C[C@H](OCC)C[C@H]2C(=O)NC2(CC(C)(C)C2)C(=O)N(C)[C@@H](C2CCCC2)C(=O)N(C)[C@H](C(=O)N(C)C)CC(=O)N1C` [PP2948], the “NRAS/KRAS (ratio of KD value with respect to GDP-bound NRAS wild-type protein to KD value with respect to KRAS)” value in test [1] (setting [3]) is “A (a compound having 10 or more and less than 20 is denoted as A)”. Also, the “HRAS/KRAS (ratio of KD value with respect to GDP-bound HRAS wild-type protein to KD value with respect to KRAS)” value in test [2] (setting [4]) was “A (a compound having 10 or more and less than 20 is denoted as A)”.

With `CCO[C@@H]1C[C@H]2C(=O)NC3(CC(C)(C)C3)C(=O)N(C)[C@@H](C(CC)CC)C(=O)N(C)[C@H](C(=O)N(C)C)CC(=O)N(C)[C@@H](CC)C(=O)N[C@@H]([C@@H](C)CC)C(=O)N(C)CC(=O)N(C)[C@H]3C/C=C\CCN(C3=O)[C@@H](Cc3ccc(C(F)(F)F)cc3)C(=O)N(C)CC(=O)N[C@@H](CCc3ccc(Cl)c(Cl)c3)C(=O)N2C1` [PP2179], in test [1] (SPR, GDP-bound NRAS wild-type vs GDP-bound KRAS wild-type), the “NRAS/KRAS (ratio of KD value with respect to NRAS to KD value with respect to KRAS)” value is “AA (a compound having 20 or more is denoted as AA)”. In test [2] (SPR, GDP-bound HRAS wild-type vs GDP-bound KRAS wild-type), the “HRAS/KRAS (ratio of KD value with respect to HRAS to KD value with respect to KRAS)” value was “A (a compound having 10 or more and less than 20 is denoted as A)”.

As for `CCO[C@@H]1C[C@H]2C(=O)NC3(CCC3)C(=O)N(C)[C@@H](C3CCCC3)C(=O)N(C)[C@H](C(=O)N3CCOCC3)CC(=O)N(C)[C@@H](CC(C)C)C(=O)N[C@@H]([C@@H](C)CC)C(=O)N(C)CC(=O)N(C)[C@H]3CCCCCN(C3=O)[C@@H](Cc3ccc4ccsc4c3)C(=O)N(C)CC(=O)N[C@@H](CCc3cc(F)c(C(F)(F)F)c(F)c3)C(=O)N2C1` [PP0921], the “NRAS/KRAS (ratio of KD value with respect to NRAS to KD value with respect to KRAS)” value in test [1] (setting [5]) was “B (a compound having 3 or more and less than 10 is denoted as B)”. Besides, in test [2] (setting [6]), the “HRAS/KRAS (ratio of KD value with respect to HRAS to KD value with respect to KRAS)” value was “B (a compound having 3 or more and less than 10 is denoted as B)”.
